According to patent US20080009546A1 (Chevron U.S.A. Inc., priority 2005, published 2008):

Legend:
C57/BL6 male mice [1] = test: Rotarod test (balance and coordination, side effects); settings: mouse, in vivo
Experimental: The side effects of the compounds was primarily evaluated using the rotarod test, which mainly assesses the balancing and coordination of mice. The comparisons were made on fall time of the mice between the first measure (pre-treatment) and second measure taken 20 min after the drug/vehicle injection in the same group (paired t-test). […] Comparisons of the rotatod fall times after drug/vehicle dosing were made between drug treatment and control groups (unpaired t-test).

C57/BL6 male mice [2] = tested on: C57/BL6 male mice

CC12CC3CC(C)(C1)CC(N)(C3)C2 [memantine, 1-amino-3,5-dimethyladamantane, reference compound]
rotarod fall time, pre-treatment vs 20 min after injection (C57/BL6 male mice [1]): loss of performance | hyperactivity (side effect) (C57/BL6 male mice [1]; ip, 30 mg/kg): observed | rotarod performance after dosing vs. control (C57/BL6 male mice [1]; ip, 30 mg/kg): statistically significant decreases in rotarod performance | Extension rate (C57/BL6 male mice [2]; 10 mg/kg i.p.): 0.67 | Mortality rate (C57/BL6 male mice [2]; 10 mg/kg i.p.): 0 | # of deaths (C57/BL6 male mice [2]; 10 mg/kg i.p., 6 mice): 0 | # of extensions (C57/BL6 male mice [2]; 10 mg/kg i.p., 6 mice): 4 | MES-induced death (C57/BL6 male mice [2]; low dose 10 mg/kg i.p., mice): protected all mice from death
